Measured values from ChEMBL document CHEMBL5512636, “Novel 6-hydroxybenzothiazol-2-carboxamides as potent and selective monoamine oxidase B inhibitors endowed with neuroprotective activity” (Eur J Med Chem, 2024).
pEC50, pIC50: −log10 of the molar value.

Key:
[1] = target: T1, Amine oxidase [flavin-containing] B (Homo sapiens, UniProt P27338); assay: Inhibition of human MAO-B incubated for 30 mins by Amplex Red assay
T1 sequence (P27338 whole entry): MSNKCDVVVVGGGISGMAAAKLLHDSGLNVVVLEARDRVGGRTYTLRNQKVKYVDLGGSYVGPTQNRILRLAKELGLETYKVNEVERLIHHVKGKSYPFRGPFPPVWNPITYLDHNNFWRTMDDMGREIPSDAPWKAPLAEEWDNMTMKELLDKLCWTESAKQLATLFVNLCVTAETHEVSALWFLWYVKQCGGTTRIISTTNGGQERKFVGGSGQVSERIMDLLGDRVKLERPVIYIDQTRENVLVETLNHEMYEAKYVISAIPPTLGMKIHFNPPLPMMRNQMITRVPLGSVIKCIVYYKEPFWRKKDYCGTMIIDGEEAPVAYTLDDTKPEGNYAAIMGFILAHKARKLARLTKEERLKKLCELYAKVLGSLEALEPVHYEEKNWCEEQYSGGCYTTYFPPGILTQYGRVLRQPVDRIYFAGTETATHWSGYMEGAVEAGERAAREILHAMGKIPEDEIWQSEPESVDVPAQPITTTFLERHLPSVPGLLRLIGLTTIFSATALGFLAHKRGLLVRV

[2] = target: T2, Amine oxidase [flavin-containing] A (Homo sapiens, UniProt P21397); assay: Inhibition of recombinant human MAO-A expressed in baculovirus infected insect cells using kynuramine as substrate at 10 uM by fluorescence based method relative to control; conditions: Insect cell
T2 sequence (P21397 whole entry): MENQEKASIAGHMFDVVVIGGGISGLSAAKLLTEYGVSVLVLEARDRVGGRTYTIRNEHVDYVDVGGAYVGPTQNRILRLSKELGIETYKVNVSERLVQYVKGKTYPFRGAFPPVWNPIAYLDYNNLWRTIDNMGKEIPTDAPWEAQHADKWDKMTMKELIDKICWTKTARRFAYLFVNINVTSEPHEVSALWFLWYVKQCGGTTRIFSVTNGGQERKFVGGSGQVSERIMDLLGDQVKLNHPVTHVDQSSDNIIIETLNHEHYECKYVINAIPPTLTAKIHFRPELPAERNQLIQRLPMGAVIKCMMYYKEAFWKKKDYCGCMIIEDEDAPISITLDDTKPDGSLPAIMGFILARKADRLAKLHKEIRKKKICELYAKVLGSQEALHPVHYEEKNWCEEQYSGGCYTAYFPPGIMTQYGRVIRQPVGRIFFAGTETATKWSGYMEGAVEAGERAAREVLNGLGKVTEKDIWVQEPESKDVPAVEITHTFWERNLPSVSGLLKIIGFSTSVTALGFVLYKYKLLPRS

[3] = target: T1, Amine oxidase [flavin-containing] B; assay: Inhibition of recombinant human MAO-B expressed in baculovirus infected insect cells using kynuramine as substrate at 10 uM by fluorescence based method relative to control; conditions: Insect cell
[4] = target: T3, Amine oxidase [flavin-containing] B (Rattus norvegicus, UniProt P19643); assay: Inhibition of rat brain mitochondria MAO-B using benzylamine as substrate incubated for 30 mins by absorbance based assay
T3 sequence (P19643 whole entry): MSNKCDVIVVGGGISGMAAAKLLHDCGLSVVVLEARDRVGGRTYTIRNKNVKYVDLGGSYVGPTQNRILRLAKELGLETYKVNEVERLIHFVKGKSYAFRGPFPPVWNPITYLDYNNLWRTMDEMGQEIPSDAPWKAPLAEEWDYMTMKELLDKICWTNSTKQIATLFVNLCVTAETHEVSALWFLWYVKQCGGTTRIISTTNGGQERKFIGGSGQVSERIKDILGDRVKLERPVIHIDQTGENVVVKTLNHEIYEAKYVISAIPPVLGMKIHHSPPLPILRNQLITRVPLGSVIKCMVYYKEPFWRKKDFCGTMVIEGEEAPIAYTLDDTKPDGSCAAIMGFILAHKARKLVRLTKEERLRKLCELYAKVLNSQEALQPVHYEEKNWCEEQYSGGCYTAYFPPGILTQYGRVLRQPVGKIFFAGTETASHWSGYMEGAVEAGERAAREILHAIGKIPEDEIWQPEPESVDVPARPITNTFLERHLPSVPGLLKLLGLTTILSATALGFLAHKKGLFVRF

[5] = target: Microtubule-associated protein tau (Homo sapiens, UniProt P10636); assay: Inhibition of GFP/RFP-fused tau oligomerization in human SH-SY5Y cells incubated for 2 hrs by FRET assay; format: cell-based
Sequence of Microtubule-associated protein tau (P10636 whole entry, the tested form may be a part): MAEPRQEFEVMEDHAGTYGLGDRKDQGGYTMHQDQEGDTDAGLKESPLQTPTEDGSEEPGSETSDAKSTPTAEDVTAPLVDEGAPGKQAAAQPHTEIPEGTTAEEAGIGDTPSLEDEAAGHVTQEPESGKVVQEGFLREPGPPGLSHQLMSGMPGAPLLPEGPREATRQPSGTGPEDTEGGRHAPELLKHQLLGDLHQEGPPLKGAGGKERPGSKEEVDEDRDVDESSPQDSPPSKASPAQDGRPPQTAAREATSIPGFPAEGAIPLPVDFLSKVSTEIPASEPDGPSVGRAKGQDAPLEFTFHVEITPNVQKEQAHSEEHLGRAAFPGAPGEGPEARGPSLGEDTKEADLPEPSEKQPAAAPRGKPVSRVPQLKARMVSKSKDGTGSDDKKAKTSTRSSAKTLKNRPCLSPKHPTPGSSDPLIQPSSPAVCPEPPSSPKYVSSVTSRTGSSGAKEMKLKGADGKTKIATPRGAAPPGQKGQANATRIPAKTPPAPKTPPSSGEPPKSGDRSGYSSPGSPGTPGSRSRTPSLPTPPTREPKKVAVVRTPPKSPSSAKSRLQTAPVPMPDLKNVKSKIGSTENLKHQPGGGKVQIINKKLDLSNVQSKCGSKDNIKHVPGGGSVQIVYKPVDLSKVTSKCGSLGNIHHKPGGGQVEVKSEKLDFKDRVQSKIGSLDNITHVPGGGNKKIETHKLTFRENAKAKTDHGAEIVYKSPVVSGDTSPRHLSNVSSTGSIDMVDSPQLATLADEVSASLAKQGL

[6] = target: T2, Amine oxidase [flavin-containing] A; assay: biochemical
Description: Inhibition of recombinant human MAO-A expressed in baculovirus infected insect cells using kynuramine as substrate by fluorescence based method

[7] = target: T1, Amine oxidase [flavin-containing] B; assay: biochemical; format: cell-based, Insect cell
Description: Inhibition of recombinant human MAO-B expressed in baculovirus infected insect cells using kynuramine as substrate by fluorescence based method

[8] = Permeability of compound by PAMPA

COc1ccc2sc(SC(=O)N/N=C\c3csc([N+](=O)[O-])c3)nc2c1 gave a pIC50 [1] of 7.22.

In the case of COc1ccc(CNC(=O)c2nc3ccc(O)cc3s2)cc1, the inhibition at 10 µM [2] was 22% and the inhibition at 10 µM [3] was 53%.

For O=C(NCc1ccccc1F)c1nc2ccc(O)cc2s1, the inhibition at 10 µM [2] was 16%.

Work on O=C(NCc1ccc(-c2ccccc2)cc1)c1nc2ccc(O)cc2s1 yielded an inhibition at 10 µM [2] of 30%.

With COc1ccc(CNC(=O)c2nc3ccc(O)cc3s2)cc1OC the inhibition at 10 µM [2] was 13%.

With O=C(NCc1cccc(F)c1F)c1nc2ccc(O)cc2s1 the inhibition at 10 µM [2] was 19%.

Work on O=C(c1nc2ccc(O)cc2s1)N1Cc2ccc(Cl)cc2C1 yielded an inhibition at 10 µM [2] of 21%.

O=C(NCc1ccc(F)cc1F)c1nc2ccc(O)cc2s1 showed an inhibition at 10 µM [2] of 35%.

In the case of O=C(N/N=C(\c1ccccc1)c1ccc(Cl)cc1)Nc1nc2ccc([N+](=O)[O-])cc2s1, the pIC50 [4] was 8.40.

For O=C(NCCc1cc2ccccc2[nH]1)c1nc2ccc(O)cc2s1, the inhibition at 10 µM [2] was 51% and the pEC50 [5] was 5.12.

In the case of COc1ccccc1CNC(=O)c1nc2ccc(O)cc2s1, the inhibition at 10 µM [2] was 25%.

With COc1ccc2nc(C(=O)NC3CCCCC3)sc2c1 the inhibition at 10 µM [2] was > 60% and the pIC50 [6] was 5.42.

In the case of O=C(NCc1cccc(F)c1)c1nc2ccc(O)cc2s1, the inhibition at 10 µM [2] was 8%.

O=C(NCc1ccc([N+](=O)[O-])cc1)c1nc2ccc(O)cc2s1 showed an inhibition at 10 µM [2] of 15%.

O=C(NCc1cccs1)c1nc2ccc(O)cc2s1 gave an inhibition at 10 µM [2] of 33%.

Molecule O=C(NCc1ccc(-c2cccs2)cc1)c1nc2ccc(O)cc2s1 has an inhibition at 10 µM [2] of 18% and an inhibition at 10 µM [3] of 30%.

With O=C(NC1CC1)c1nc2ccc(O)cc2s1 the inhibition at 10 µM [2] was 13% and the inhibition at 10 µM [3] was 52%.

For COc1ccc(CNC(=O)c2nc3ccc(O)cc3s2)c(OC)c1, the inhibition at 10 µM [2] was 26%.

Molecule O=C(NCc1cccc(Cl)c1)c1nc2ccc(O)cc2s1 has an inhibition at 10 µM [2] of 28%.

Cc1cccc(CNC(=O)c2nc3ccc(O)cc3s2)c1 gave an inhibition at 10 µM [2] of 19%.

O=C(NCc1ccccc1)c1nc2ccc(O)cc2s1 showed an inhibition at 10 µM [2] of 18% and a pIC50 [7] of 6.26.

O=C(NCc1ccc(Cl)cc1)c1nc2ccc(O)cc2s1 showed an inhibition at 10 µM [2] of 21%.

In the case of COc1cccc(CNC(=O)c2nc3ccc(O)cc3s2)c1OC, the inhibition at 10 µM [2] was 11%.

In the case of COc1cccc(CNC(=O)c2nc3ccc(O)cc3s2)c1, the inhibition at 10 µM [2] was 18%.

O=C(NCc1ccc(F)c(F)c1)c1nc2ccc(O)cc2s1 gave an inhibition at 10 µM [2] of 29%.

In the case of O=C(Nc1nc2ccc(O)cc2s1)C1CCCCC1, the inhibition at 10 µM [2] was > 80% and the pIC50 [6] was 5.72.

Work on O=C(NCc1cc(C(F)(F)F)cc(C(F)(F)F)c1)c1nc2ccc(O)cc2s1 yielded an inhibition at 10 µM [2] of 26%.

For CC(C)(C)c1ccc(CNC(=O)c2nc3ccc(O)cc3s2)cc1, the inhibition at 10 µM [2] was 19% and the inhibition at 10 µM [3] was 44%.

COc1ccc(CNC(=O)c2nc3ccc(O)cc3s2)cc1F showed an inhibition at 10 µM [2] of 32%.

Work on O=C(NC1CCCCC1)c1nc2ccccc2s1 yielded an inhibition at 10 µM [2] of 26%.

O=C(NCc1cccnc1)c1nc2ccc(O)cc2s1 showed an inhibition at 10 µM [2] of 28% and an inhibition at 10 µM [3] of 48%.

Work on O=C(NCc1ccc(F)cc1)c1nc2ccc(O)cc2s1 yielded an inhibition at 10 µM [2] of 52%.

Work on O=C(c1nc2ccc(O)cc2s1)N1CCc2ccccc2C1 yielded an inhibition at 10 µM [2] of 17%.

In the case of O=C(NC1CCCC1)c1nc2ccc(O)cc2s1, the inhibition at 10 µM [2] was 35%.

With O=C(NCC#Cc1ccccc1)c1nc2ccc(O)cc2s1 the inhibition at 10 µM [2] was 59%.

Work on O=C(NCc1ccco1)c1nc2ccc(O)cc2s1 yielded an inhibition at 10 µM [2] of 10% and an inhibition at 10 µM [3] of 41%.

Molecule O=C(NCCc1ccccc1)c1nc2ccc(O)cc2s1 has an inhibition at 10 µM [2] of 36% and a pEC50 [5] of 4.98.

In the case of O=C(NCC(c1ccccc1)c1ccccc1)c1nc2ccc(O)cc2s1, the inhibition at 10 µM [2] was 13% and the inhibition at 10 µM [3] was 43%.

With Cc1ccccc1CNC(=O)c1nc2ccc(O)cc2s1 the inhibition at 10 µM [2] was 15%.

Molecule O=C(NC1CCCCC1)c1nc2ccc(O)cc2s1 has an inhibition at 10 µM [2] of 32%.

Cc1cc(C)cc(CNC(=O)c2nc3ccc(O)cc3s2)c1 gave an inhibition at 10 µM [2] of 26%.

CCCCCCNC(=O)c1nc2ccc(O)cc2s1 gave an inhibition at 10 µM [2] of 37%.

Work on Cc1ccc(CNC(=O)c2nc3ccc(O)cc3s2)cc1 yielded an inhibition at 10 µM [2] of 22%.

Work on COc1cc(CNC(=O)c2nc3ccc(O)cc3s2)cc(OC)c1 yielded an inhibition at 10 µM [2] of 43%.

In the case of O=C(NCc1ccccc1Cl)c1nc2ccc(O)cc2s1, the inhibition at 10 µM [2] was 24%.

Molecule O=C(c1nc2ccc(O)cc2s1)N1CCCCC1 has an inhibition at 10 µM [2] of 16% and an inhibition at 10 µM [3] of 31%.

With O=C(NCC1CCCCC1)c1nc2ccc(O)cc2s1 the inhibition at 10 µM [2] was 32%.

Work on CCn1cc(C(=O)O)c(=O)c2cc(F)c(N3CCNCC3)cc21 [NORFLOXACIN] yielded a Papp [8] of 1.25 ×10⁻⁶ cm/s.
